The subject of data set [1] is Mac-1 (αMβ2)–CD40L interaction. Briefly: cell-free Mac-1–CD40L binding inhibition assay. Further details: species or system human. Particulars: compared with CD40–CD40L activity; Figure S1.
Data set [2] has as its target human CD40–CD40L interaction (Homo sapiens, UniProt P29965).
The test system of data set [3] is THP-1 human myeloid cells. The note with it: THP-1 cells, 0.5 µg/mL MegaCD40L, 48 h; Figure S2.
The nature of another data set: water solubility. It counts as physicochemical. Particulars: distilled water, Estimated water solubility, saturated solution.
Data set [4] relates to Balb/c skin allografts in C57BL/6 mice. The note with it: two week treatment, 30 mg/kg daily s.c. in 20% HPβCD.
The subject of data set [5] is Salmonella typhimurium TA-100. In words: Muta-Chromplate mutagenicity assay. Particulars: S. typhimurium TA-100; concentrations tested of up to 500 µM; Figure S4.
In data set [6] the test system is THP-1 human myeloid cells. In words: MTT cytotoxicity assay. The format is cell-based. Particulars: THP-1 cells, 48 h; concentrations of up to 100 and 200 µM; Figure S3.

Each structure is given as a SMILES string. In brackets after ≈: the same amount, converted by molar mass.

Data on six compounds can be found in publication PMC5823691 (Journal of medicinal chemistry, 2017).

Chain of human CD40–CD40L interaction (P29965 113-261 limits assumed): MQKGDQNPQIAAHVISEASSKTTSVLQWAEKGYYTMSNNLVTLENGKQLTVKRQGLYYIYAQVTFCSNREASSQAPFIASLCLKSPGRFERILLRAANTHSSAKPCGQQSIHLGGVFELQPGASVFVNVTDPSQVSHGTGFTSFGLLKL

Take `O=C(Nc1ccc2c(O)c(/N=N/c3ccc(N=Nc4ccc(S(=O)(=O)O)cc4)cc3S(=O)(=O)O)c(S(=O)(=O)O)cc2c1)Nc1ccc2c(O)c(/N=N/c3ccc(N=Nc4ccc(S(=O)(=O)O)cc4)cc3S(=O)(=O)O)c(S(=O)(=O)O)cc2c1` (stereo in doubt) [Compound 1, direct red 80, reference compound]: the “increase of inhibitory potency in Mac-1–CD40L assay” value in data set [1] is “about 10 fold”. Also, the “ligand efficiency (LE)” value in data set [2] (binding free energy per non-hydrogen atom) turned out to be 0.4 kJ/atom.
As to `COC(=O)c1ccc(C(=O)Nc2ccc(-c3ccc(C(=O)Nc4cccc5cccc(S(=O)(=O)O)c45)cc3)cc2)cc1` [Compound 10, 8-(4’-(4-(Methoxycarbonyl)benzamido)biphenyl-4-ylcarboxamido)naphthalene-1-sulfonic acid], the “effect on CD40L-induced MHC-II upregulation” value (shortened to “effect”) in data set [3] is recorded as “concentration-dependently inhibited”. Further, in “water solubility”, the solubility is 164 µg/mL (≈ 282 µM). Moreover, the “toxicity during chronic treatment” value in data set [4] is “no signs of toxicity”. The “genotoxic potential (Ames test)” value in data set [5] was “neither of these compounds was found to have genotoxic potential”.
`Nc1ccc(C(=O)Nc2ccc(-c3ccc(C(=O)Nc4cccc5cccc(S(=O)(=O)O)c45)cc3)cc2)cc1` [Compound 8, 8-(4’-(4-Aminobenzamido)biphenyl-4-ylcarboxamido)naphthalene-1-sulfonic acid]: the “increase of inhibitory potency in Mac-1–CD40L assay” value in data set [1] was “about 10 fold”.
`CSCC[C@H](NC(=O)[C@@H](NC(=O)[C@H](Cc1ccc(O)cc1)NC(=O)[C@H](Cc1ccc(O)cc1)NC(=O)CNC(=O)[C@H](CCCCN)NC(=O)[C@H](CCCCN)NC(=O)[C@H](C)NC(=O)[C@H](Cc1c[nH]c2ccccc12)NC(=O)[C@H](CCC(N)=O)NC(=O)[C@H](CC(C)C)NC(=O)[C@@H](N)C(C)C)[C@@H](C)O)C(=O)N[C@@H](CCCCN)C(=O)N[C@@H](CO)C(=O)N[C@@H](CC(N)=O)C(=O)O` [mouse KGYY15]: the “CD40 IC50” value in data set [2] (cell-free, soluble CD40L binding to plate-coated CD40, Hill slope 1 fit) is recorded as “no inhibitory activity”.
As for `O=C(Nc1ccc(-c2ccc(C(=O)Nc3cccc4cccc(S(=O)(=O)O)c34)cc2)cc1)c1ccc([N+](=O)[O-])cc1` [Compound 6, 8-(4’-(4-Nitrobenzamido)biphenyl-4-ylcarboxamido)naphthalene-1-sulfonic acid], the “effect” value in data set [3] is listed as “concentration-dependently inhibited”. In addition, the “genotoxic potential (Ames test)” value in data set [5] is recorded as “neither of these compounds was found to have genotoxic potential”.
For the compound `O=C(Nc1ccc(-c2ccc(C(=O)Nc3ccc(C(=O)O)c4ccccc34)cc2)cc1)c1ccc([N+](=O)[O-])cc1` [Compound 11, 4-(4’-(4-Nitrobenzamido)biphenyl-4-ylcarboxamido)-1-naphthoic acid], the “effect” value in data set [3] is given as “concentration-dependently inhibited”. For the same compound, in data set [6], the “cytotoxicity (MTT, viability)” value is “significant effect on viability at 100 µM”.
